# Results: ChEMBL document CHEMBL3639137, “3H-imidazo [4, 5-C] pyridine-6-carboxamides as anti-inflammatory agents” (2014)
# Target: T1, Prostaglandin E synthase (Homo sapiens, UniProt O14684)
# T1 sequence (O14684 whole entry): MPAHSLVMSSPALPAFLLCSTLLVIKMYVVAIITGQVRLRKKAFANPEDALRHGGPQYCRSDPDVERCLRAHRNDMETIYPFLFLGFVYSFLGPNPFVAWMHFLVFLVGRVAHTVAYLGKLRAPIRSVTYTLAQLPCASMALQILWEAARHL
# Experiment: Enzyme Assay: The aim of this assay is to determine the affinity of a test compound for the mPGES-1 enzyme. 47 ul of recombinant human mPGES-1 (0.5 ug protein/well) containing microsomal suspension in a buffer containing GSH, (2.5 mmol/L L-Glutathione reduced, dissolved in 0.1 mol/L Phosphat Buffer pH 7.4) is dispensed in a 384-well plate and thereafter 1 ul of the test compound(s) is/are added and incubated for 25 minutes at room temperature. The enzyme reaction is started by the addition of 2 ul PGH2 (final conc. 2 uM) dissolved in water-free Diglyme. After 60 seconds the reaction is terminated by addition of a stop solution containing FeCl2 (10 uL 0.074 mol/l FeCl2). The samples are diluted between 1:25 in PBS (Phosphate Buffered Saline). 10 ul of the diluted samples are transferred to 384-well low volume plate.
row,SMILES,IC50 [nM]
1,Cn1c(Nc2c(Cl)ccc(CNC(=O)C(C)(C)C)c2Cl)nc2cc(C(=O)Nc3cccc(C#N)c3)c(OCC(F)F)cc21,3
2,CC(C)(C)C(=O)NCc1ccc(Cl)c(Nc2nc3c(F)c(OCC(F)(F)F)c(C(=O)N[C@H]4CC[C@H](C(F)(F)F)CC4)cc3[nH]2)c1Cl,2
3,Cn1c(Nc2c(Cl)ccc(CNC(=O)C(C)(C)C)c2Cl)nc2cc(C(=O)Nc3ccc(Br)cc3)c(F)cc21,2
4,CC(C)(C)C(=O)NCc1ccc(Cl)c(Nc2nc3cc(OC(F)F)c(C(=O)N[C@H]4CC[C@H](C(F)(F)F)CC4)cc3[nH]2)c1Cl,2
